# Data published in patent publication US9163027B2, “Substituted triazolo-pyrimidine compounds for modulating cell proliferation differentiation and survival” (STATegics, Inc., priority 2012, dated 2015).
# Test system: PC12 cells
# Assay: PC12 cell survival under serum deprivation (CellTiter-Glo)
# Format: cell-based, rat
# Conditions: 72 h serum-free; NS = RLU increased <25% at 5 uM
# Protocol: Each culture condition was performed in quadruplicate in each experiment and the mean values were calculated. The results represent mean±SEM of relative light unit values when compared to the mean values obtained in the presence of the medium alone. A total of 13 experiments were performed and the statistical significance was analyzed using GraphPad Prism software using ANOVA, followed by paired t-test. The symbol * indicates P-values <0.01.
# PC12 cells were cultured in DMEM supplemented with 10% fetal calf serum and 5% horse serum. […] Cell viability was analyzed by CellTiter-Glo® reagent (Promega).
# PC12 cells were cultured in DMEM supplemented with 10% fetal calf serum and 5% horse serum. […] Cell survival of the serum-starved cells was analyzed by CellTiter-Glo® reagent luminescence reading.
# FIG. 2 illustrates neuroprotective effects of Compounds 1-5 when tested in PC12 cell protection assays. PC12 cells were subjected to serum deprivation as described under FIG. 1.
# PC12 cells were cultured in DMEM supplemented with 10% fetal calf serum and 5% horse serum. […] Cell survival of the serum-starved cells was analyzed by CellTiter-Glo® reagent luminescence reading (relative light units, “RLU”). […] “NS” indicates RLU increased <25% when compounds were tested at 5 uM.
row,Compound,PC12 cell proliferation (CellTiter-Glo ®) Concentration at which RLU increased >25% compared to medium control
1,Cc1cc(C)n2nc(SCCOc3ccc(F)c(Cl)c3)nc2n1 [Example 6],<5 µM
2,"Cc1cc(C)n2nc(SCCOc3ccncc3)nc2n1 [Example 31, 4-[2-({5,7-dimethyl-[1,2,4]triazolo[1,5-a]pyrimidin-2-yl}sulfanyl)ethoxy]pyridine]",NS (RLU increased <25% when compounds were tested at 5 uM)
3,"Cc1cc(C)n2nc(SCCOc3ccc(CCN(C)C)cc3)nc2n1 [Example 32, (2-{4-[2-({5,7-dimethyl-[1,2,4]triazolo[1,5-a]pyrimidin-2-yl}sulfanyl)ethoxy]phenyl}ethyl)-dimethylamine]",NS (RLU increased <25% when compounds were tested at 5 uM)
4,"Cc1cc(C)n2nc(SCCOC3CCCCC3)nc2n1 [Example 33, 2-{[2-(cyclohexyloxy)ethyl]sulfanyl}-5,7-dimethyl-[1,2,4]triazolo[1,5-a]pyrimidine]",NS (RLU increased <25% when compounds were tested at 5 uM)

# Same assay, conditions: Rattus norvegicus, PC-12; 72 h serum-free; NS = RLU increased <25% at 5 uM; read-out: PC12 cell proliferation (CellTiter-Glo ®) Concentration at which RLU increased >25% compared to medium control
row,Compound,minimal effective concentration
1,"Cc1cc(C)n2nc(SCCOc3ccccc3)nc2n1 [Example 2, 5,7-dimethyl-2-[(2-phenoxyethyl)sulfanyl]-[1,2,4]-triazolo[1,5-a]pyrimidine]",< 5 µM
2,"Cc1cc(C)n2nc(SCCOc3ccc(F)cc3)nc2n1 [Example 3, 2-{[2-(4-fluorophenoxy)ethyl]sulfanyl}-5,7-dimethyl-[1,2,4]triazolo[1,5-a]pyrimidine]",< 5 µM
3,"Cc1cc(C)n2nc(SCCOc3ccc(Cl)c(F)c3)nc2n1 [Example 4, 2-{[2-(4-chloro-3-fluorophenoxy)ethyl]sulfanyl}-5,7-dimethyl-[1,2,4]triazolo[1,5-a]pyrimidine]",< 5 µM
4,"Cc1cc(C)n2nc(SCCOc3ccc(Cl)c(Cl)c3)nc2n1 [Example 5, 2-{[2-(3,4-dichlorophenoxy)ethyl]sulfanyl}-5,7-dimethyl-[1,2,4]-triazolo[1,5-a]pyrimidine]",< 5 µM
5,"Cc1cc(C)n2nc(SCCOc3ccc(F)c(F)c3)nc2n1 [Example 7, 2-{[2-(3,4-difluorophenoxy)ethyl]sulfanyl}-5,7-dimethyl-[1,2,4]triazolo[1,5-a]pyrimidine]",< 5 µM
6,"CCc1ccc(OCCSc2nc3nc(C)cc(C)n3n2)cc1 [Example 8, 2-{[2-(4-ethylphenoxy)ethyl]sulfanyl}-5,7-dimethyl-[1,2,4]triazolo[1,5-a]pyrimidine]",< 5 µM
7,"Cc1cc(C)n2nc(SCCN(CCO)c3ccccc3)nc2n1 [Example 9, 2-{[2-({5,7-Dimethyl-[1,2,4]triazolo[1,5-a]pyrimidin-2-yl}sulfanyl)ethyl](phenyl)amino}ethan-1-ol]",< 5 µM
8,"Cc1cc(C)n2nc(OCCCC3CCCC3)nc2n1 [Example 12, 2-(3-cyclopentylpropoxy)-5,7-dimethyl-[1,2,4]-triazolo[1,5-a]pyrimidine]",< 5 µM
9,"CCc1cc(CC)n2nc(OCCN(CCO)c3ccc(F)cc3)nc2n1 [Example 14, 2-{[2-({5,7-diethyl-[1,2,4]triazolo[1,5-a]pyrimidin-2-yl}oxy)ethyl](4-fluorophenyl)amino}ethan-1-ol]",< 5 µM
10,"CCc1cc(CC)n2nc(OCCOc3ccc(F)cc3)nc2n1 [Example 15, 5,7-diethyl-2-[2-(4-fluorophenoxy)ethoxy]-[1,2,4]triazolo[1,5-a]pyrimidine]",< 5 µM
11,"CCc1cc(CC)n2nc(OCCOc3ccc(Cl)cc3)nc2n1 [Example 16, 5,7-diethyl-2-[-2-(4-chlorophenoxy)ethoxy]-[1,2,4]triazolo[1,5-a]pyrimidine]",< 5 µM
12,"CCc1cc(CC)n2nc(OCCN(CCO)c3ccccc3)nc2n1 [Example 17, 2-{[2-({5,7-Diethyl-[1,2,4]triazolo[1,5-a]pyrimidin-2-yl}oxy)ethyl](phenyl)amino}ethan-1-ol]",< 5 µM
13,"CCc1cc(CC)n2nc(NCCOc3ccccc3)nc2n1 [Example 18, 5,7-diethyl-N-(2-phenoxyethyl)-[1,2,4]triazolo[1,5-a]pyrimidin-2-amine]",< 5 µM
14,"Cc1cc(C)n2nc(NCCOc3ccc(Cl)cc3)nc2n1 [Example 19, N-[2-(4-chlorophenoxy)ethyl]-5,7-dimethyl-[1,2,4]triazolo[1,5-a]pyrimidin-2-amine]",< 5 µM
15,"CCc1cc(CC)n2nc(CCCN(CCO)c3ccc(F)cc3)nc2n1 [Example 20, 2-[(3-{5,7-diethyl-[1,2,4]triazolo[1,5-a]pyrimidin-2-yl}propyl)(4-fluorophenyl)amino]ethan-1-ol]",< 5 µM
16,"CCc1cc(CC)n2nc(CCCN(CCOC(C)=O)c3ccc(F)cc3)nc2n1 [Example 21, 2-[(3-{5,7-diethyl-[1,2,4]triazolo[1,5-a]pyrimidin-2-yl}propyl)(4-fluorophenyl)amino]ethyl acetate]",< 5 µM
17,"Cc1cc(C(F)(F)F)n2nc(CCCOc3ccc(Cl)cc3)nc2n1 [Example 22, 2-[3-(4-chlorophenoxy)propyl]-5-methyl-7-(trifluoromethyl)-[1,2,4]triazolo[1,5-a]pyrimidine]",< 5 µM
18,"Cc1cc(C(F)(F)F)n2nc(SCCOc3ccc(Cl)cc3)nc2n1 [Example 23, 2-{[2-(4-chlorophenoxy)ethyl]sulfanyl}-5-methyl-7-(trifluoromethyl)-[1,2,4]-triazolo[1,5-a]pyrimidine]",< 5 µM
19,"FC(F)(F)c1cc(C(F)(F)F)n2nc(SCCOc3ccc(Cl)cc3)nc2n1 [Example 24, 2-{[2-(4-chlorophenoxy)ethyl]sulfanyl}-5,7-bis(trifluoromethyl)-[1,2,4]-triazolo[1,5-a]pyrimidine]",< 5 µM
20,"Clc1ccc(OCCSc2nc3ncccn3n2)cc1 [Example 25, 2-{[2-(4-chlorophenoxy)ethyl]sulfanyl}-[1,2,4]-triazolo[1,5-a]pyrimidine]",< 5 µM
21,"Cc1ccn2nc(SCCOc3ccc(Cl)cc3)nc2n1 [Example 26, 2-{[2-(4-chlorophenoxy)ethyl]sulfanyl}-5-methyl-[1,2,4]triazolo[1,5-a]pyrimidine]",< 5 µM
22,"Cc1ccnc2nc(SCCOc3ccc(Cl)cc3)nn12 [Example 27, 2-{[2-(4-chlorophenoxy)ethyl]sulfanyl}-7-methyl-[1,2,4]-triazolo[1,5-a]pyrimidine]",< 5 µM
23,"CC(C)c1cc(C(C)C)n2nc(CCCOc3ccc(F)cc3)nc2n1 [Example 29, 2-[3-(4-fluorophenoxy)propyl]-5,7-bis(propan-2-yl)-[1,2,4]triazolo[1,5-a]pyrimidine]",< 5 µM
24,"Fc1ccc(OCCCc2nc3nc(C(F)F)cc(C(F)F)n3n2)cc1 [Example 30, 5,7-bis(difluoromethyl)-2-[3-(4-fluorophenoxy)propyl]-[1,2,4]triazolo[1,5-a]pyrimidine]",< 5 µM
25,"Cc1cc(C)n2nc(SCCc3c[nH]c4ccccc34)nc2n1 [Example 34, 3-[2-({5,7-dimethyl-[1,2,4]triazolo[1,5-a]pyrimidin-2-yl}sulfanyl)ethyl]-1H-indole]",< 5 µM
26,"Cc1cc(C)n2nc(OCCSc3ccc(Cl)cc3)nc2n1 [Example 35, 2-{2-[(4-chlorophenyl)sulfanyl]ethoxy}-5,7-dimethyl-[1,2,4]triazolo[1,5-a]pyrimidine]",< 5 µM
